Consider twelve compounds from PMC8074679, “Synthesis and pharmacological characterization of glucopyranosyl-conjugated benzyl derivatives as novel selective cytotoxic agents against colon cancer” (Royal Society Open Science, 2021).

Read-outs that look alike come from different tables or passages of the source.

For one series, the system named is 293T cells. The series is described as follows: MTS cytotoxicity assay, 293T (model of normal cells). Particulars: read-out: IC50 (μM) 293T.
Series [1] concerns HCT-116 cells. Description: MTS cytotoxicity assay, HCT-116. Particulars: for IC50: read-out: IC50 (μM) HCT-116; for selectivity: ratio of cytotoxicity against 293T cells over cytotoxicity against HCT-116 cells. In general terms: Formazan colour is commonly taken as a measure of viable cells.
Protocol: (§3) HCT-116 cells were cultured in McCoy's 5a Modified Medium (Gibco, USA). […] Both media contain 10% fetal bovine serum (Gibco, USA) and 1% penicillin–streptomycin (Gibco, USA). Cells were maintained in incubator (Thermo Fisher, USA) supplied with 5% CO2 at 37°C. Only cells in logarithmic phase were used in all following experiments.
(§4) In brief, cells were seeded into 96-well plate (Corning, USA) with a density of 3000 cells/well for 24 h, and then treated with tested compounds at various concentrations for 72 h.
The test system of series [2] is HCT-116 cells. Description: Colony formation assay. The class given is cell-based, human. Particulars: pre-treatment 24 h with various concentrations, 9 days culture after withdrawal. On the procedure:
(§1) Thus, it was further studied to understand its underlying antiproliferation mechanism. The confluence areas of HCT-116 cells treated with various concentrations of compound 8d were detected by a live cell analysis imaging system.
HCT-116 cells were seeded in 6-well plates at a density of 300 cells per well and cultured overnight, and then treated with various concentrations of compound 8d for 24 h. Cells were continuously cultured for 9 days after drug withdrawal. Finally, 1% crystal violet was used to stain cells after fixing with 4% paraformaldehyde, and the visible colonies were recorded by the microscope and counted manually using imageJ.

Series [3] relates to HCT-116 cells. Description: Annexin V/PI double staining, flow cytometry. Type of series: cell-based, human. Particulars: 2.5 and 5 µM. On the procedure: (§2) Next, the type of cell death induced by compound 8d was investigated. […] Annexin V/PI staining assay were carried out to analyse the apoptotic rate of HCT-116 cells.
Cells were seeded in 6-well plates with a density of 5 × 10^5 cells per well and then treated with various concentrations of compound 8d (0 µM, 2.5 µM and 5 µM) for 48 h. Cells were collected and stained with annexin V and PI for 20 min, and then detected by flow cytometer (BD, USA) to analyse the apoptotic cell distribution. Living cells (annexin V^−/PI^−), early apoptotic cells (annexin V^+/PI^−), late apoptotic cells (annexin V^+/PI^+) and necrotic cells (annexin V^−/PI^+) were calculated in the Cell Quest software (BD, USA).
On the technique in general: A flow cytometer gives signals particle by particle.

The test system of series [4] is HCT-116 cells. Description: Live cell imaging of confluence area (Incucyte). Type of series: cell-based, human. Here is the method:
as §1
Cells were seeded into 24-well plate (1 × 10^4 cells well^−1) for 24 h. Different concentrations of compound 8d were added to treat cells. Time-lapse photography of cells was recorded by Incucyte system. The confluences relative to total well area were calculated using a module of the cell confluence area analysing.

The test system of series [5] is HCT-116 cells. Description: Annexin V staining in living cells. The class given is cell-based, human. Particulars: 5 µM, 72 h. Here is the method:
as §2
Cells that seed on coverslips were treated with compound 8d (5 µM) for 72 h. Annexin V-FITC was used to target exposed phosphatidylserine which is a marker of early apoptosis. The nucleus of living cells was labelled by Hoechst 33258. The cells were observed by fluorescence microscope (Olympus, Japan).

In series [6] the test system is HCT-116 cells. The series is described as follows: TUNEL assay. Particulars: 5 µM, 72 h. The class given is cell-based, human. Here is the method:
as §2
TdT-UTP nick end-labelling (TUNEL) assay was used to detect the apoptotic cells by in situ cell death detection kit (Roche, Germany) according to the manufacturer's instruction. Briefly, HCT-116 cells were seeded on coverslips and cultured overnight, following treatment with compound 8d (5 µM) for 72 h, then fixed with 4% paraformaldehyde for 30 min and permeabilized with 0.1% Triton X-100 for 2 min on ice. TUNEL reaction mixture was applied to the cells in an atmosphere for 1 h at 37°C in the dark, following with converter-POD and DAB substrate treatment. Samples were detected by a microscope (Olympus, Japan).

Series [7] concerns HCT-116 cells. Description: Hoechst 33258 staining. The class given is cell-based, human. Particulars: 5 µM, 48 or 72 h. On the procedure: as §2
HCT-116 cells were seeded in coverslips for 24 h, and then compound 8d was incubated at a concentration of 5 µM for 48 or 72 h. Cells were incubated with Hoechst 33258 (Sigma, USA) in the dark at room temperature for 30 min after being fixed with 4% paraformaldehyde. The nuclear morphology of apoptosis was observed by fluorescence microscope (Olympus, Japan).

Where [8] appears, read: MTS assay, 72 h treatment, mean ± s.d.

Protocol for 293T cells: as §3, §4

With `CC(=O)OC[C@H]1OC(OC(C)=O)[C@H](n2cc(COCc3ccc(Br)cc3)nn2)[C@@H](OC(C)=O)[C@@H]1OC(C)=O` (stereo partly drawn) [8 g, 1-(1,3,4,6-Tetra-O-acetyl-D-glucopyranosyl)-4-(4-bromobenzene)hydryloxymethyl-[1,2,3]-triazole], the IC50 in the series with 293T cells (Homo sapiens, HEK-293T, 72 h) is 11.7 ± 0.16 µM; in the series with HCT-116 cells [1] (Homo sapiens, HCT-116, 72 h) it was 4.55 ± 0.23 µM. In addition, the selectivity with HCT-116 cells [1] came to 2.56.

On to `CC(=O)OC[C@H]1OC(OC(C)=O)[C@H](n2cc(COCc3ccc(C(F)(F)F)cc3)nn2)[C@@H](OC(C)=O)[C@@H]1OC(C)=O` (stereo partly drawn) [8 h, 1-(1,3,4,6-Tetra-O-acetyl-D-glucopyranosyl)-4-(4-trifluoromethylbenzene)hydryloxymethyl-[1,2,3]-triazole], for which the IC50 in the series with 293T cells (Homo sapiens, HEK-293T, 72 h) is 6.09 ± 0.42 µM; in the series on HCT-116 cells [1] (Homo sapiens, HCT-116, 72 h) it was 14.3 ± 2.18 µM. Besides, the selectivity with HCT-116 cells [1] is reported as 0.42.

For `CC(=O)OC[C@H]1OC(OC(C)=O)[C@H](N)[C@@H](OC(C)=O)[C@@H]1OC(C)=O` (stereo partly drawn) [AOAG, reference compound], the half-inhibitory concentration (IC50) with 293T cells (setting [8]) and in the series with HCT-116 cells [1] (setting [8]) was more than 200 µM throughout.

As to `CC(=O)OC[C@H]1OC(OC(C)=O)[C@H](N=[N+]=[N-])[C@@H](OC(C)=O)[C@@H]1OC(C)=O` (stereo partly drawn) [Compound 4, 1,3,4,6-Tetra-O-acetyl-2-azido-2-deoxy-D-glucose, reference compound], the IC50 in the series on 293T cells (Homo sapiens, HEK-293T, 72 h) is 46.9 ± 2.93 µM; with HCT-116 cells [1] (Homo sapiens, HCT-116, 72 h) it was 97.5 ± 1.58 µM. Besides, the selectivity in the series with HCT-116 cells [1] was 0.48.

Regarding `O=c1[nH]cc(F)c(=O)[nH]1` [Compound 5-FU, 5-Fluorouracil, reference compound], the 50% inhibitory concentration (IC50) is 9.13 ± 1.63 µM in the series on 293T cells (Homo sapiens, HEK-293T, 72 h) and 3.62 ± 1.22 µM in the series on HCT-116 cells [1] (Homo sapiens, HCT-116, 72 h). The selectivity with HCT-116 cells [1] is given as 2.52.

In the case of `OCc1ccccc1` [Compound 6b, reference compound], the IC50 in the series on 293T cells (Homo sapiens, HEK-293T, 72 h) was more than 200 µM; in the series with HCT-116 cells [1] (Homo sapiens, HCT-116, 72 h), more than 200 µM.

For `CC(=O)OC[C@H]1OC(OC(C)=O)[C@H](n2cc(CO)nn2)[C@@H](OC(C)=O)[C@@H]1OC(C)=O` (stereo partly drawn) [Compound 8a, 1-(1,3,4,6-Tetra-O-acetyl-D-glucopyranosyl)-4-hydroxymethyl-[1,2,3]-triazole], the half-maximal inhibitory concentration (IC50) is more than 50 µM with 293T cells (Homo sapiens, HEK-293T, 72 h) and more than 50 µM in the series on HCT-116 cells [1] (Homo sapiens, HCT-116, 72 h). The “cytotoxicity / antiproliferation activity towards HCT-116 (in words)” value with HCT-116 cells [1] (MTS assay) is on record as “fairly weak”.

With `CC(=O)OC[C@H]1OC(OC(C)=O)[C@H](n2cc(COCc3ccc(C)cc3)nn2)[C@@H](OC(C)=O)[C@@H]1OC(C)=O` (stereo partly drawn) [Compound 8c, 1-(1,3,4,6-Tetra-O-acetyl-D-glucopyranosyl)-4-(4-methylbenzene)hydryloxymethyl-[1,2,3]-triazole], the IC50 in the series on 293T cells (Homo sapiens, HEK-293T, 72 h) is 19.57 ± 0.13 µM; in the series on HCT-116 cells [1] (Homo sapiens, HCT-116, 72 h), 6.4 ± 0.2 µM. Further, the selectivity with HCT-116 cells [1] is 3.06.

With `COc1ccc(COCc2cn([C@H]3C(OC(C)=O)O[C@H](COC(C)=O)[C@@H](OC(C)=O)[C@@H]3OC(C)=O)nn2)cc1` (stereo partly drawn) [Compound 8d, 1-(1,3,4,6-Tetra-O-acetyl-D-glucopyranosyl)-4-(4-methoxybenzene)hydryloxymethyl-[1,2,3]-triazole], the “colony formation of HCT-116” value in the series with HCT-116 cells [2] is listed as “inhibited the colony formation of HCT-116 by a dose-dependent manner”. Further, the “induction of apoptosis, Annexin V/PI assay (in words)” value in the series with HCT-116 cells [3] was “dose-dependently induced early apoptosis and late apoptosis”. In addition, in the series with HCT-116 cells [4] (10 µM, for at least 72 h), the “proliferation of HCT-116 cells (confluence area)” value is recorded as “completely inhibited”. Further, in the series with HCT-116 cells [4] (various concentrations), the “proliferation of HCT-116 cells (confluence area), dose dependence” value is given as “dose-dependently inhibited the proliferation”. Moreover, the IC50 with 293T cells (Homo sapiens, HEK-293T, 72 h) came out at 31.35 ± 0.1 µM; with HCT-116 cells [1] (Homo sapiens, HCT-116, 72 h), 2.88 ± 0.32 µM. Moreover, the “Annexin V-FITC staining on cellular membranes of living cells” value in the series on HCT-116 cells [5] is on record as “Annexin-V-positive staining emerged on cellular membranes”. Also, the “DNA fragmentation, TUNEL assay” value with HCT-116 cells [6] is reported as “DNA fragmentation emerged”. The “cytotoxicity / antiproliferation activity towards HCT-116 (in words)” value with HCT-116 cells [1] (MTS assay) was “comparable to 5-FU”. Besides, in the series with HCT-116 cells [1], the selectivity is on record as 10.89. Also, the “apoptotic DNA fragmentation, Hoechst 33258 staining” value with HCT-116 cells [7] is recorded as “Apoptotic DNA fragmentation”.

Consider `CC(=O)OC[C@H]1OC(OC(C)=O)[C@H](n2cc(COCc3ccc(F)cc3)nn2)[C@@H](OC(C)=O)[C@@H]1OC(C)=O` (stereo partly drawn) [Compound 8e, 1-(1,3,4,6-Tetra-O-acetyl-D-glucopyranosyl)-4-(4-fluorobenzene)hydryloxymethyl-[1,2,3]-triazole], for which the IC50 came out at 8.1 ± 0.08 µM in the series on 293T cells (Homo sapiens, HEK-293T, 72 h) and 4.17 ± 0.06 µM with HCT-116 cells [1] (Homo sapiens, HCT-116, 72 h). Also, the selectivity in the series with HCT-116 cells [1] is given as 1.94.

Turning to `CC(=O)OC[C@H]1OC(OC(C)=O)[C@H](n2cc(COCc3ccc(Cl)cc3)nn2)[C@@H](OC(C)=O)[C@@H]1OC(C)=O` (stereo partly drawn) [Compound 8f, 1-(1,3,4,6-Tetra-O-acetyl-D-glucopyranosyl)-4-(4-chlorobenzene)hydryloxymethyl-[1,2,3]-triazole], the IC50 with 293T cells (Homo sapiens, HEK-293T, 72 h) came to 22.41 ± 0.05 µM; in the series with HCT-116 cells [1] (Homo sapiens, HCT-116, 72 h) it was 7.04 ± 0.06 µM. The selectivity in the series on HCT-116 cells [1] was determined as 3.18.

For the compound `CC(=O)OC[C@H]1OC(OC(C)=O)[C@H](n2cc(COCc3ccc([N+](=O)[O-])cc3)nn2)[C@@H](OC(C)=O)[C@@H]1OC(C)=O` (stereo partly drawn) [Compound 8i, 1-(1,3,4,6-Tetra-O-acetyl-D-glucopyranosyl)-4-(4-nitrobenzene)hydryloxymethyl-[1,2,3]-triazole], the IC50 in the series with 293T cells (Homo sapiens, HEK-293T, 72 h) was 8 ± 0.77 µM; with HCT-116 cells [1] (Homo sapiens, HCT-116, 72 h), 17.3 ± 3.86 µM. Also, in the series with HCT-116 cells [1], the selectivity is 0.46.

A word on the IC50: it is the point on the concentration scale where inhibition reaches its midpoint.
